Columns and labels:
HIV = conditions: cited from earlier work
[1] = Mixing compatibility of additives with zinc chloride fixative paste; type: physicochemical; conditions: for mixing with the zinc chloride fixative paste: additive in low concentration
Protocol: Podophyllin is a natural plant extract from the dried roots of either Podophyllum peltatum or P. emodi. It is an antimitotic agent used for many years in the treatment of human warts. (Fitzpatrick T B, et al. Dermatology in General Medicine, McGraw-Hill 1999, p. 2724.) Podophyllin is added at a 0.01% concentration, although a wide range of concentrations may be acceptable from 0.001% to 90% or greater, depending on the zinc chloride formulation employed.

[2] = inadvertent extravasation; far greater concentration and dosage than in the paste; tenderness, erythema, skin discoloration, swelling; cited from earlier work

Structure (SMILES) | inactivation of HIV (HIV) | mixing with the zinc chloride fixative paste [1] | paste consistency and viscosity after addition ([1]; paclitaxel in low concentration) | local skin reactions [2]
[Cl-].[Cl-].[Zn+2] [zinc chloride] | inactivated |  |  | 
NC(N)=O [urea] |  | completely compatible and mix fully |  | 
CC(=O)O[C@H]1C(=O)[C@@]2(C)[C@H]([C@H](OC(=O)c3ccccc3)[C@]3(O)C[C@H](OC(=O)[C@H](O)[C@@H](NC(=O)c4ccccc4)c4ccccc4)C(C)=C1C3(C)C)[C@]1(OC(C)=O)CO[C@@H]1C[C@@H]2O [paclitaxel] |  | mixes completely and fully | remains unchanged | mild
O=c1[nH]cc(F)c(=O)[nH]1 [fluorouracil] |  | completely compatible and mix fully |  | 

— patent publication US6558694B2, “Zinc chloride unit dose packaging, applicator, and method of use in treating cancer and other skin diseases” (priority 1999, dated 2003)
